Test results taken from patent publication US20230263822A1, “MODULATION OF FACTOR 11 EXPRESSION” (Ionis Pharmaceuticals, Inc., priority 2008, published 2023).
Strand notation (5' to 3'): a small letter for the sugar, then the base; units joined by * are phosphorothioate-linked, units joined directly phosphodiester-linked; [ ] holds rarer units or linkages, { } end groups; capitals alone tell only the bases. e = 2'-O-(2-methoxyethyl) (MOE); [5mC] = 5-methylcytosine; d = 2'-deoxy (DNA)

Key:
Assay type in all cases: cell-based
[1] = system: human Factor 11 mRNA; assay: Antisense inhibition of human Factor 11 in HepG2 cells by microwalk gapmers, lipofectin, 75 nM (Example 3); details: HepG2 cells, lipofectin, gapmers targeted to nucleobases 1275 to 1318 of SEQ ID NO: 1
Procedure, shortened: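 HepG2 cells (10,000/well) were transfected via lipofectin with 75 nM 20-mer MOE gapmers (phosphorothioate, 5-methyl-C) for about 24 h. Factor 11 mRNA was measured by qRT-PCR, normalized to RIBOGREEN total RNA, and given as percent inhibition versus untreated cells.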

[2] = system: human Factor 11 mRNA; assay: Antisense inhibition of human Factor 11 in HepG2 cells, electroporation, 8,000 nM (Example 30); details: electroporation, 8,000 nM antisense oligonucleotide
Procedure: These microwalk gapmers were tested in vitro. Cultured HepG2 cells at a density of 20,000 cells per well were transfected using electroporation with 8,000 nM antisense oligonucleotide. After a treatment period of approximately 24 hours, RNA was isolated from the cells and Factor 11 mRNA levels were measured by quantitative real-time PCR. Factor 11 mRNA levels were adjusted according to total RNA content, as measured by RIBOGREEN. Results are presented as percent inhibition of Factor 11, relative to untreated control cells.
The chimeric antisense oligonucleotides in Table 44 were designed as 5-10-5 MOE, 5-8-5 and 6-8-6 MOE gapmers. The first two listed gapmers in Table 44 are the original gapmers (ISIS 416850 and ISIS 416858) from which ISIS 445493-445543 were designed via microwalk, and are designated by an asterisk. The 5-10-5 gapmers are 20 nucleotides in length, wherein the central gap segment is comprised of ten 2′-deoxynucleotides and is flanked on both sides (in the 5′ and 3′ directions) by wings comprising five nucleotides each. The 5-8-5 gapmers are 18 nucleotides in length, wherein the central gap segment is comprised of eight 2′-deoxynucleotides and is flanked on both sides (in the 5′ and 3′ directions) by wings comprising five nucleotides each. The 6-8-6 gapmers are 20 nucleotides in length, wherein the central gap segment is comprised of eight 2′-deoxynucleotides and is flanked on both sides (in the 5′ and 3′ directions) by wings comprising six nucleotides each. For each of the motifs (5-10-5, 5-8-5 and 6-8-6), each nucleotide in the 5′ wing segment and each nucleotide in the 3′ wing segment has a 2′-MOE modification. The internucleoside linkages throughout each gapmer are phosphorothioate (P=S) linkages. All cytidine residues throughout each gapmer are 5-methylcytidines. “Human Target start site” indicates the 5′-most nucleotide to which the gapmer is targeted in the human sequence. “Human Target stop site” indicates the 3′-most nucleotide to which the gapmer is targeted in the human sequence. Each gapmer listed in Table 44 is targeted to SEQ ID NO: 1 (GENBANK Accession No. NM_000128.3). Each gapmer is Table 44 is also fully cross-reactive with the rhesus monkey Factor 11 gene sequence, designated herein as SEQ ID NO: 274 (exons 1-15 GENBANK Accession No. NW_001118167.1). ‘Rhesus monkey start site’ indicates the 5′-most nucleotide to which the gapmer is targeted in the rhesus monkey sequence. ‘Rhesus monkey stop site’ indicates the 3′-most nucleotide to which the gapmer is targeted to the rhesus monkey sequence.

[3] = system: human Factor 11 mRNA; assay: Dose-dependent inhibition of human Factor 11 in HepG2 cells, electroporation 123.46-10,000 nM (Example 31); details: for Percent inhibition of Factor 11 mRNA at 123.47 nM / Percent inhibition of Factor 11 mRNA at 370.37 nM / IC50: electroporation; for Percent inhibition of Factor 11 mRNA at 123.47 nM / Percent inhibition of Factor 11 mRNA at 370.37 nM / Percent inhibition of Factor 11 mRNA at 1,111.11 nM / Percent inhibition of Factor 11 mRNA at 3,333.33 nM / Percent inhibition of Factor 11 mRNA at 10,000.0 nM: approx. 16 hours, relative to untreated control cells; for Percent inhibition of Factor 11 mRNA at 1,111.11 nM: electroporation, 1,111.11 nM; for Percent inhibition of Factor 11 mRNA at 3,333.33 nM: electroporation, 3,333.33 nM; for Percent inhibition of Factor 11 mRNA at 10,000.0 nM: electroporation, 10,000.0 nM; for IC50: Factor 11 mRNA expression
Procedure: Cells were plated at a density of 20,000 cells per well and transfected using electroporation with 123.46 nM, 370.37 nM, 1,111.11 nM, 3,333.33 nM and 10,000 nM concentrations of antisense oligonucleotide, as specified in Table 45. After a treatment period of approximately 16 hours, RNA was isolated from the cells and Factor 11 mRNA levels were measured by quantitative real-time PCR. Human Factor 11 primer probe set RTS 2966 was used to measure mRNA levels. Factor 11 mRNA levels were adjusted according to total RNA content, as measured by RIBOGREEN. Results are presented as percent inhibition of Factor 11, relative to untreated control cells.

Row | Substance | Percent inhibition of human Factor 11 mRNA levels [2] | other results
1 | 416853 (antisense eT*eT*eG*eG*eT*dG*d[5mC]*dA*d[5mC]*dA*dG*dT*dT*dT*d[5mC]*eT*eG*eG*e[5mC]*eA) [compound 416853] | 84% | % inhibition [1]: 91%
2 | 416854 (antisense eA*eT*eT*eG*eG*dT*dG*d[5mC]*dA*d[5mC]*dA*dG*dT*dT*dT*e[5mC]*eT*eG*eG*e[5mC]) [compound 416854] | 86% | % inhibition [1]: 90%
3 | 416855 (antisense e[5mC]*eA*eT*eT*eG*dG*dT*dG*d[5mC]*dA*d[5mC]*dA*dG*dT*dT*eT*e[5mC]*eT*eG*eG) [compound 416855] | 85% | % inhibition [1]: 87%
4 | 416862 (antisense eA*eG*e[5mC]*eG*eG*dA*d[5mC]*dG*dG*d[5mC]*dA*dT*dT*dG*dG*eT*eG*e[5mC]*eA*e[5mC]) [compound 416862] | 89% | % inhibition [1]: 90%
5 | 416865 (antisense eT*eG*eG*e[5mC]*eA*dG*d[5mC]*dG*dG*dA*d[5mC]*dG*dG*d[5mC]*dA*eT*eT*eG*eG*eT) [compound 416865] | 86% | % inhibition [1]: 88%
6 | 445503 (antisense eG*e[5mC]*eA*eT*eT*eG*dG*dT*dG*d[5mC]*dA*d[5mC]*dA*dG*eT*eT*eT*e[5mC]*eT*eG) [compound 445503] | 89% | Percent inhibition of Factor 11 mRNA at 123.47 nM [3]: 0%; Percent inhibition of Factor 11 mRNA at 370.37 nM [3]: 0%; Percent inhibition of Factor 11 mRNA at 1,111.11 nM [3]: 22%; Percent inhibition of Factor 11 mRNA at 3,333.33 nM [3]: 36%; Percent inhibition of Factor 11 mRNA at 10,000.0 nM [3]: 60%; IC50 [3]: 5.9 µM
7 | 445517 (antisense eA*e[5mC]*eT*eG*eG*e[5mC]*dA*dG*d[5mC]*dG*dG*dA*d[5mC]*dG*eG*e[5mC]*eA*eT*eT*eG) [compound 445517] | 74% | –
8 | 445518 (antisense eA*eG*eT*eT*eT*d[5mC]*dT*dG*dG*d[5mC]*dA*dG*dG*e[5mC]*e[5mC]*eT*e[5mC]*eG) [compound 445518] | 75% | –
9 | 445519 (antisense e[5mC]*eA*eG*eT*eT*dT*d[5mC]*dT*dG*dG*d[5mC]*dA*dG*eG*e[5mC]*e[5mC]*eT*e[5mC]) [compound 445519] | 81% | –
10 | 445520 (antisense eA*e[5mC]*eA*eG*eT*dT*dT*d[5mC]*dT*dG*dG*d[5mC]*dA*eG*eG*e[5mC]*e[5mC]*eT) [compound 445520] | 82% | –
11 | 445521 (antisense e[5mC]*eA*e[5mC]*eA*eG*dT*dT*dT*d[5mC]*dT*dG*dG*d[5mC]*eA*eG*eG*e[5mC]*e[5mC]) [compound 445521] | 87% | –
12 | 445523 (antisense eT*eG*e[5mC]*eA*e[5mC]*dA*dG*dT*dT*dT*d[5mC]*dT*dG*eG*e[5mC]*eA*eG*eG) [compound 445523] | 73% | –
13 | 445524 (antisense eG*eT*eG*e[5mC]*eA*d[5mC]*dA*dG*dT*dT*dT*d[5mC]*dT*eG*eG*e[5mC]*eA*eG) [compound 445524] | 75% | –
14 | 445525 (antisense eG*eG*eT*eG*e[5mC]*dA*d[5mC]*dA*dG*dT*dT*dT*d[5mC]*eT*eG*eG*e[5mC]*eA) [compound 445525] | 85% | –
15 | 445526 (antisense eT*eG*eG*eT*eG*d[5mC]*dA*d[5mC]*dA*dG*dT*dT*dT*e[5mC]*eT*eG*eG*e[5mC]) [compound 445526] | 81% | –
16 | 445527 (antisense eT*eT*eG*eG*eT*dG*d[5mC]*dA*d[5mC]*dA*dG*dT*dT*eT*e[5mC]*eT*eG*eG) [compound 445527] | 70% | –
17 | 445528 (antisense eA*eT*eT*eG*eG*dT*dG*d[5mC]*dA*d[5mC]*dA*dG*dT*eT*eT*e[5mC]*eT*eG) [compound 445528] | 73% | –
18 | 445529 (antisense e[5mC]*eA*eT*eT*eG*dG*dT*dG*d[5mC]*dA*d[5mC]*dA*dG*eT*eT*eT*e[5mC]*eT) [compound 445529] | 85% | –
19 | 445532 (antisense e[5mC]*eG*eG*e[5mC]*eA*dT*dT*dG*dG*dT*dG*d[5mC]*dA*e[5mC]*eA*eG*eT*eT) [compound 445532] | 89% | Percent inhibition of Factor 11 mRNA at 123.47 nM [3]: 5%; Percent inhibition of Factor 11 mRNA at 370.37 nM [3]: 12%; Percent inhibition of Factor 11 mRNA at 1,111.11 nM [3]: 39%; Percent inhibition of Factor 11 mRNA at 3,333.33 nM [3]: 60%; Percent inhibition of Factor 11 mRNA at 10,000.0 nM [3]: 70%; IC50 [3]: 2 µM
20 | 445533 (antisense eA*e[5mC]*eG*eG*e[5mC]*dA*dT*dT*dG*dG*dT*dG*d[5mC]*eA*e[5mC]*eA*eG*eT) [compound 445533] | 87% | –
21 | 445534 (antisense eG*eA*e[5mC]*eG*eG*d[5mC]*dA*dT*dT*dG*dG*dT*dG*e[5mC]*eA*e[5mC]*eA*eG) [compound 445534] | 82% | –
22 | 445535 (antisense eG*eG*eA*e[5mC]*eG*dG*d[5mC]*dA*dT*dT*dG*dG*dT*eG*e[5mC]*eA*e[5mC]*eA) [compound 445535] | 83% | –
23 | 445536 (antisense e[5mC]*eG*eG*eA*e[5mC]*dG*dG*d[5mC]*dA*dT*dT*dG*dG*eT*eG*e[5mC]*eA*e[5mC]) [compound 445536] | 82% | –
24 | 445537 (antisense eG*e[5mC]*eG*eG*eA*d[5mC]*dG*dG*d[5mC]*dA*dT*dT*dG*eG*eT*eG*e[5mC]*eA) [compound 445537] | 78% | –
25 | 445538 (antisense eA*eG*e[5mC]*eG*eG*dA*d[5mC]*dG*dG*d[5mC]*dA*dT*dT*eG*eG*eT*eG*e[5mC]) [compound 445538] | 80% | –
26 | 445539 (antisense e[5mC]*eA*eG*e[5mC]*eG*dG*dA*d[5mC]*dG*dG*d[5mC]*dA*dT*eT*eG*eG*eT*eG) [compound 445539] | 79% | –
27 | 445540 (antisense eG*e[5mC]*eA*eG*e[5mC]*dG*dG*dA*d[5mC]*dG*dG*d[5mC]*dA*eT*eT*eG*eG*eT) [compound 445540] | 74% | –
28 | 445541 (antisense eG*eG*e[5mC]*eA*eG*d[5mC]*dG*dG*dA*d[5mC]*dG*dG*d[5mC]*eA*eT*eT*eG*eG) [compound 445541] | 80% | –
29 | 445542 (antisense eT*eG*eG*e[5mC]*eA*dG*d[5mC]*dG*dG*dA*d[5mC]*dG*dG*e[5mC]*eA*eT*eT*eG) [compound 445542] | 83% | –
30 | 445543 (antisense e[5mC]*eT*eG*eG*e[5mC]*dA*dG*d[5mC]*dG*dG*dA*d[5mC]*dG*eG*e[5mC]*eA*eT*eT) [compound 445543] | 74% | –
